# Entries after “also recorded” stand apart in the source; their conditions may differ.
# Legend:
# human fetal neurons = system: human fetal neurons
# Procedure: Culture of Human Brain Cells: Neuronal cultures were prepared as described previously (Magnuson D S, et al. Ann Neurol 1995, 37: 373-380; Nath A, et al. J Virol 1996, 70: 1475-1480; New D, et al. J Neurovirol 1997, 3: 168-173). Human fetal brain specimens of gestational age 12-14 weeks were obtained with the consent of women opting for elective termination of pregnancy. Protocols were carried out with strict adherence to the guidelines of the National Institutes of Health (NIH) and with approval from the University of Kentucky Institutional Review Board. Briefly, after mechanical dissociation, the cells were suspended in Opti-MEM with 5% heat-inactivated fetal bovine serum, 0.2% N2 supplement and 1% antibiotic solution (penicillin G sodium 104 units/ml, streptomycin sulfate 10 μg/ml and amphotericin-B 25 μg/ml) (GIBCO). The cells were maintained in culture flasks at 37° C. in a humidified atmosphere of 5% CO2 and 95% air for at least a month. At least 3 days before the experiment was performed the cells were plated in flat bottom 96 well plates coated with poly-d-lysine. Sample cultures were stained for the neuron-specific enolase, microtubule-associated protein-2, synaptophysin, and glial fibrillary astrocytic protein (GFAP). […] Sample cultures were further characterized for the presence of ER-α and ER-β and dopaminergic neurons.
# Neurotoxicity Assay: At the time of the experimental treatment, the culture media was replaced with Locke's buffer containing (in mM) 154 NaCl, 5.6 KCl, 2.3 CaCl2, 1 MgCl2, 3.6 NaHCO3, 5 glucose, 5 N-2-hydroxyethylpiperazine-N′2-ethanesulfonic acid (HEPES) and 1% antibiotic solution (penicillin G sodium 104 units/ml, streptomycin sulfate 10 μg/ml and amphotericin-B 25 μg/ml) (pH 7.2). […] To replicate the stereoisomer specific neuroprotective properties of estrogen, the cultures were treated with either […] (10 nM), or 17α-E2 (10 nM) immediately preceding addition of the HIV proteins plus cocaine. To investigate the neuroprotective properties of other gonadal steroids, the cells were treated with various concentrations of PROG or T, immediately followed by exposure to the HIV proteins plus cocaine. […] Various concentrations of cholesterol were used as treatment prior to incubation with the HIV proteins plus cocaine to further characterize the nature of gonadal steroid neuroprotection. ICI-182,780, DMSO (10 nM), β-cyclodextrin (100 nM) and ethanol (10 nM) were also tested for neurotoxic/protective effects. ICI-182,780 and 17α-E2 were solvated in DMSO. […], T, PROG and cholesterol were β-cyclodextrin encapsulated to provide water solubility. Ethanol was used to solvate DHT. Tat1-72 was produced as indicated above, whereas gp120 was a gift from Chiron Corporation. The ICI-182,780 compound was obtained from Tocris Cookson, Inc. (Ellisville, Mo.). All other chemical agents were supplied by Sigma Chemicals (St. Louis, Mo.). At the end of the incubation period neuronal death was assessed by trypan blue (Sigma) exclusion assay as described previously (Vongher J and Frye C. Pharmacol Biochem Behav 1999, 64: 777-785; Magnuson D S, et al. Ann Neurol 1995, 37: 373-380; Nath A, et al. J Virol 1996, 70: 1475-1480).
# rat hippocampal neurons = test: Live/Dead (Calcein/Ethidium) viability of rat hippocampal neuronal cultures; details: hydrochloride
# [1] = system: adult female Sprague-Dawley rats (ovariectomized); test: Locomotor activity after intra-accumbal Tat and IV cocaine (Example 4); format: in vivo, rat; details: IV cocaine 3.0 mg/kg, saline intra-accumbal
# Procedure: Animals. […] Ovariectomy was also performed on all rats during the same surgical procedure.
# Intra-accumbal TAT injection. A 2 treatment×2 drug, design was used. Thus, rats received bilateral injections of TAT or vehicle into the nucleus accumbens core and were subsequently administered an IV injection of cocaine (3.0 mg/kg/injection) or saline. Rats were administered intra-accumbal TAT or VEH injections according to methods previously described (Bansal et al., 2000). Briefly, 15 μg of Tat were injected bilaterally, using a Hamilton Syringe coated with Sigmacote, at the following coordinates: 1.8 mm anterior, ±1.6 mm lateral, and 7.0 mm ventral from bregma on the skull surface.
# Locomotor activity. The activity monitors were 16-cm diameter, round open-field chambers (Flex-Field, San Diego Instruments, San Diego, Calif.) that detected free movement of animals by infrared photocell interruptions. This equipment used an infrared photocell grid (32 emitter/detector pairs) to measure total locomotor activity. […]
# Drug Treatment. […] The dose of cocaine hydrochloride (3.0 mg/kg/day; Sigma, St. Louis, Mo.) was calculated on the weight of the salt and dissolved in saline for an injection volume of 1 ml/kg.
smiles,measurement,setting,value
"COC(=O)[C@H]1[C@@H](OC(=O)c2ccccc2)C[C@@H]2CC[C@H]1N2C.Cl [cocaine, Cocaine hydrochloride]",toxicity of HIV proteins combined with cocaine,human fetal neurons; Tat 40 nM + gp120 32.5 pM + cocaine 1.6 μM,synergistic neurotoxicity
same,toxicity alone vs Locke's buffer,"human fetal neurons; substance alone, 15 hours","Neither the HIV proteins, Tat plus gp120, nor cocaine alone were more toxic than the Locke's buffer control"
same,"neuronal cell death / Tat toxicity, Tat + cocaine vs Tat alone","rat hippocampal neurons; 50 nM Tat + 1.5-1.6 μM cocaine, 48 hours",significantly higher in cultures subjected to both Tat and cocaine; also recorded: enhanced Tat toxicity
same,"toxicity / cell viability, cocaine alone",rat hippocampal neurons; cocaine alone (0.1-10 μM; 1.5 μM),No toxicity; also recorded: did not change cell viability
same,"centrally directed activity, cocaine",[1],cocaine-induced increase in centrally directed activity

# From patent publication US20080306019A1, “Dopamine Receptor Agonists in the Treatment and Prevention of Hiv-Induced Dementia” (priority 2005, published 2008)
